Patent US20220056015A1, “KIF18A INHIBITORS” (AMGEN INC., priority 2018, published 2022)

Target: T1, Recombinant human KIF18A (1-467 His-tagged) protein (Homo sapiens, UniProt Q8NI77)
T1 construct: Recombinant human KIF18A (1-467 His-tagged) protein; His
Assay: KIF18A Enzyme Assay: microtubule-stimulated ATPase activity assay (ADP-Glo)
Type: biochemical
Details: 30 nM KIF18A, 30 μg/mL pig microtubules, ATP at Km 75 μM, room temperature, ADP-Glo luminescence
From the text: KIF18A Enzyme Assay: Microtubule-stimulated ATPase activity assay is used to measure KIF18A enzyme activity after treatment with compound. Compounds were 2-fold serially diluted in DMSO (Sigma Inc) over 22-point concentration range. Recombinant human KIF18A (1-467 His-tagged) protein was expressed using a baculovirus system and purified by affinity chromatography by Amgen Inc. Concentrations of KIF18A protein, microtubules (MT), and ATP in the reaction were optimized for standardized homogenous enzyme assay using ADP-Glorm Kinase/ATPase Assay Kit (Promega Inc). The assay measures ADP formed from the ATPase reaction. […] Read luminescence using EnVision microplate reader with ultra-luminescence module (Perkin Elmer Inc). Concentration-response curve-fitting and ICn determination was performed using Genedata Screener Software (Standard 15.0.1, Genedata Inc) with a four-parameter logistic regression fit model.

T1 sequence (Q8NI77 1-467): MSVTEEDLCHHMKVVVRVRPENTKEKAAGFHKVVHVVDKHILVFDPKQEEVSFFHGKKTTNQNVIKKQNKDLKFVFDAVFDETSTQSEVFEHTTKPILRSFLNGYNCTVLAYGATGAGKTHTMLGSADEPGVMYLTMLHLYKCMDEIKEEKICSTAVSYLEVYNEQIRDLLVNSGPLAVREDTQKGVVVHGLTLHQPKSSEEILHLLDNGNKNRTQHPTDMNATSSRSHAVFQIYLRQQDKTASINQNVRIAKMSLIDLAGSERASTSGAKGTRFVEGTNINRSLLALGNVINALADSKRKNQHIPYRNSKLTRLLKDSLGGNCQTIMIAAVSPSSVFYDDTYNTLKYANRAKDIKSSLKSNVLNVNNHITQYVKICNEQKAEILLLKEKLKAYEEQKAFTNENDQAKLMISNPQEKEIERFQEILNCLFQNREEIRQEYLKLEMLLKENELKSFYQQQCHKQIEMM
T1 sequence (P02550 whole entry partner): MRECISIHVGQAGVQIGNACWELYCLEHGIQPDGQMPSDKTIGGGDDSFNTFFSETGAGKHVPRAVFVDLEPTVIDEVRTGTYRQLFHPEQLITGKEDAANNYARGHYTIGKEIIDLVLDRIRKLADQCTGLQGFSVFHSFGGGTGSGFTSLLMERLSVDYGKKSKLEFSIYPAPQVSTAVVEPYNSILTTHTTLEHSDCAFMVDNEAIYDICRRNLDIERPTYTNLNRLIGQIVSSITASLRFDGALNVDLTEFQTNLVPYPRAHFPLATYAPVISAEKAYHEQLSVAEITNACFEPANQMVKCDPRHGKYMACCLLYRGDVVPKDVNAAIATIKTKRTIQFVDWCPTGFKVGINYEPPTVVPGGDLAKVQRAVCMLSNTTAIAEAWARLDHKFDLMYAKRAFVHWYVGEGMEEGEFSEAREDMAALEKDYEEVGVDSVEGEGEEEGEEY
T1 sequence (P02554 whole entry partner): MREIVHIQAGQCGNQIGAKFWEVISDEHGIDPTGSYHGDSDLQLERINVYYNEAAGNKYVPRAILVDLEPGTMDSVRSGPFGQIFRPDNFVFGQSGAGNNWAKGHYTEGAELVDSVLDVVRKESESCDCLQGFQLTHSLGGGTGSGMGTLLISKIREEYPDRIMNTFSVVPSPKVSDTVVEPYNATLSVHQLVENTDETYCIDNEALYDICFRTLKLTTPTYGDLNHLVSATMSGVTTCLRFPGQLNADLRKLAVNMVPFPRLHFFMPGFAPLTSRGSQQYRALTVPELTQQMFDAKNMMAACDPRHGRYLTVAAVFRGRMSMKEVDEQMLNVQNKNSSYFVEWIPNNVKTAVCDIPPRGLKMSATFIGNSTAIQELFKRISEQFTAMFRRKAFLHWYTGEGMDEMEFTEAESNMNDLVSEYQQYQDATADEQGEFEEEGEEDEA

Row | Compound | IC50
1 | Cc1cc(NC(=O)c2ncc(S(=N)(=O)C3CC3)cc2N2CCC3(CC2)CC3)nc(N2CCC(F)(F)CC2)n1 (single isomer, unassigned) [Example 5-2, 3-(6-Azaspiro[2.5]octan-6-yl)-5-(S-cyclopropylsulfonimidoyl)-N-(2-(4,4-difluoro-1-piperidinyl)-6-methyl-4-pyrimidinyl)-2-pyridinecarboxamide] | 71 nM
2 | Cc1cc(NC(=O)c2ccc(NC3(C)COC3)nc2N2CCC3(CC2)CC3)nc(N2CCC(F)(F)CC2)n1 [Example 2-3, N-(2-(4,4-Difluoropiperidin-1-yl)-6-methylpyrimidin-4-yl)-6-((3-methyloxetan-3-yl)amino)-2-(6-azaspiro[2.5]octan-6-yl)nicotinamide] | 453 nM
3 | Cc1cc(NC(=O)c2ccc(NC(C)(C)CO)nc2N2CCC3(CC2)CC3)nc(N2CCO[C@H](C)C2)n1 [Example 2-5, (R)-6-((1-Hydroxy-2-methylpropan-2-yl)amino)-N-(6-methyl-2-(2-methylmorpholino)pyrimidin-4-yl)-2-(6-azaspiro[2.5]octan-6-yl)nicotinamide] | 230 nM
4 | Cc1cc(NC(=O)c2ncc(NC(C)(C)CO)cc2N2CCC3(CC2)CC3)nc(N2CCC(F)(F)CC2)n1 [Example 2-6, N-(2-(4,4-Difluoropiperidin-1-yl)-6-methylpyrimidin-4-yl)-5-((1-hydroxy-2-methylpropan-2-yl)amino)-3-(6-azaspiro[2.5]octan-6-yl)picolinamide] | 122 nM
5 | Cc1cc(NC(=O)c2cnc(NC(C)(C)CO)nc2N2CCC3(CC2)CC3)nc(N2CCC(F)(F)CC2)n1 [Example 2-7, N-(2-(4,4-Difluoropiperidin-1-yl)-6-methylpyrimidin-4-yl)-2-((1-hydroxy-2-methylpropan-2-yl)amino)-4-(6-azaspiro[2.5]octan-6-yl)pyrimidine-5-carboxamide] | 55 nM
6 | Cc1cc(NC(=O)c2ncc(NC(C)(C)CO)nc2N2CCC3(CC2)CC3)nc(N2CCC(F)(F)CC2)n1 [Example 2-8, N-(2-(4,4-Difluoropiperidin-1-yl)-6-methylpyrimidin-4-yl)-5-((1-hydroxy-2-methylpropan-2-yl)amino)-3-(6-azaspiro[2.5]octan-6-yl)pyrazine-2-carboxamide] | 88 nM
7 | Cc1cc(NC(=O)c2ncc([S@](=N)(=O)C3CC3)cc2N2CCC3(CC2)CC3)nc(N2CCC(F)(F)CC2)n1 [Example 5-1, 3-(6-Azaspiro[2.5]octan-6-yl)-5-(R-cyclopropylsulfonimidoyl)-N-(2-(4,4-difluoro-1-piperidinyl)-6-methyl-4-pyrimidinyl)-2-pyridinecarboxamide] | 105 nM
8 | Cc1cc(NC(=O)c2ncc(NS(=O)(=O)CCO)cc2N2CCC3(CC2)CC3)nc(N2CCC(F)(F)CC2)n1 [Example 6, N-(2-(4,4-Difluoropiperidin-1-yl)-6-methylpyrimidin-4-yl)-5-((2-hydroxyethyl)sulfonamido)-3-(6-azaspiro[2.5]octan-6-yl)picolinamide] | 15 nM
9 | Cc1cc(NC(=O)c2ncc(S(=O)(=O)C3CC3)cc2N2CCC3(CC2)CC3)nc(N2CCC(F)(F)CC2)n1 [Example 8, 5-(Cyclopropylsulfonyl)-N-(2-(4,4-difluoropiperidin-1-yl)-6-methylpyrimidin-4-yl)-3-(6-azaspiro[2.5]octan-6-yl)picolinamide] | 91 nM
10 | Cc1cc(NC(=O)c2cc(NCCO)ncc2N2CCC3(CC2)CC3)nc(N2CCC(F)(F)CC2)n1 [Example 9, N-(2-(4,4-Difluoropiperidin-1-yl)-6-methylpyrimidin-4-yl)-2-((2-hydroxyethyl)amino)-5-(6-azaspiro[2.5]octan-6-yl)isonicotinamide] | 394 nM

More lines, in order of falling IC50, values ahead:

Row | IC50 | Compound
11 | 916 nM | Cc1cc(NC(=O)c2ccc(NC3COC3)nc2N2CCC3(CC2)CC3)nc(N2CCO[C@H](C)C2)n1 [Example 2, (R)—N-(6-methyl-2-(2-methylmorpholino)pyrimidin-4-yl)-6-(oxetan-3-ylamino)-2-(6-azaspiro[2.5]octan-6-yl)nicotinamide]
12 | 402 nM | Cc1cc(NC(=O)c2ccc(NS(=O)(=O)CCO)nc2N2CCC3(CC2)CC3)nc(N2CCO[C@H](C)C2)n1 [Example 1-1, (R)-6-((2-Hydroxyethyl)sulfonamido)-N-(6-methyl-2-(2-methylmorpholino)pyrimidin-4-yl)-2-(6-azaspiro[2.5]octan-6-yl)nicotinamide]
13 | 355 nM | Cc1cc(NC(=O)c2ccc(NC3(C)COC3)nc2N2CCC3(CC2)CC3)nc(N2CCO[C@H](C)C2)n1 [Example 2-1, (R)-N-(6-Methyl-2-(2-methylmorpholino)pyrimidin-4-yl)-6-((3-methyloxetan-3-yl)amino)-2-(6-azaspiro[2.5]octan-6-yl)nicotinamide]
14 | 272 nM | Cc1cc(NC(=O)c2cnc(NS(=O)(=O)CCO)nc2N2CCC3(CC2)CC3)nc(N2CCC(F)(F)CC2)n1 [Example 7-1, N-(2-(4,4-difluoropiperidin-1-yl)-6-methylpyrimidin-4-yl)-2-((2-hydroxyethyl)sulfonamido)-4-(6-azaspiro[2.5]octan-6-yl)pyrimidine-5-carboxamide]
15 | 264 nM | Cc1cc(NC(=O)c2cnc(S(=N)(=O)C3CC3)cc2N2CCC3(CC2)CC3)nc(N2CCC(F)(F)CC2)n1 (single isomer, unassigned) [Example 4-1, 4-(6-Azaspiro[2.5]octan-6-yl)-6-(S-cyclopropylsulfonimidoyl)-N-(2-(4,4-difluoro-1-piperidinyl)-6-methyl-4-pyrimidinyl)-3-pyridinecarboxamide]
16 | 218 nM | Cc1cc(NC(=O)c2ccc(NC3(CO)COC3)nc2N2CCC3(CC2)CC3)nc(N2CCO[C@H](C)C2)n1 [Example 2-2, (R)-6-((3-(Hydroxymethyl)oxetan-3-yl)amino)-N-(6-methyl-2-(2-methylmorpholino)pyrimidin-4-yl)-2-(6-azaspiro[2.5]octan-6-yl)nicotinamide]
17 | 206 nM | Cc1cc(NC(=O)c2cnc([S@@](=N)(=O)C3CC3)cc2N2CCC3(CC2)CC3)nc(N2CCC(F)(F)CC2)n1 (single isomer, unassigned) [Example 4-2, 4-(6-Azaspiro[2.5]octan-6-yl)-6-(R-cyclopropylsulfonimidoyl)-N-(2-(4,4-difluoro-1-piperidinyl)-6-methyl-4-pyrimidinyl)-3-pyridinecarboxamide]
18 | 173 nM | Cc1cc(NC(=O)c2ccc(NC3(CO)COC3)nc2N2CCC3(CC2)CC3)nc(N2CCC(F)(F)CC2)n1 [Example 2-4, N-(2-(4,4-Difluoropiperidin-1-yl)-6-methylpyrimidin-4-yl)-6-((3-(hydroxymethyl)oxetan-3-yl)amino)-2-(6-azaspiro[2.5]octan-6-yl)nicotinamide]
19 | 80 nM | Cc1cc(NC(=O)c2ncc(NS(=O)(=O)CCO)nc2N2CCC3(CC2)CC3)nc(N2CCC(F)(F)CC2)n1 [Example 10, N-(2-(4,4-Difluoropiperidin-1-yl)-6-methylpyrimidin-4-yl)-5-((2-hydroxyethyl)sulfonamido)-3-(6-azaspiro[2.5]octan-6-yl)pyrazine-2-carboxamide]
20 | 31 nM | Cc1cc(NC(=O)c2ccc(NS(=O)(=O)CCO)nc2N2CCC3(CC2)CC3)nc(N2CCC(F)(F)CC2)n1 [Example 1, N-(2-(4,4-difluoropiperidin-1-yl)-6-methylpyrimidin-4-yl)-6-((2-hydroxyethyl)sulfonamido)-2-(6-azaspiro[2.5]octan-6-yl)nicotinamide]
21 | 27 nM | O=C(Nc1ccc(NS(=O)(=O)CCO)cc1N1CCC2(CC1)CC2)c1ccnc(N2CCC(F)(F)CC2)c1 [Example 11, 2-(4,4-Difluoropiperidin-1-yl)-N-(4-((2-hydroxyethyl)sulfonamido)-2-(6-azaspiro[2.5]octan-6-yl)phenyl)isonicotinamide]
22 | 13 nM | Cc1cc(NC(=O)c2cnc(NS(=O)(=O)CCO)cc2N2CCC3(CC2)CC3)nc(N2CCC(F)(F)CC2)n1 [Example 7, N-(2-(4,4-Difluoropiperidin-1-yl)-6-methylpyrimidin-4-yl)-6-((2-hydroxyethyl)sulfonamido)-4-(6-azaspiro[2.5]octan-6-yl)nicotinamide]
